The series in a line: Human HepG2 cell viability assay in 384 well format. Also noted: dose 125 nL, time 70.5 hour; concentration not given beside the values. It is filed as toxicity, cell-based. The settings on record: HepG2 cells, read-out: Inhibition.
`CC(=O)N1CCC(c2c(CN(C)C)cnc3cc(C)nn23)CC1`: the cytotoxicity at 70.5 h came out at 15.7%.

On to `Nc1cc(-c2c[nH]nc2C2CCCN2S(=O)(=O)c2ccccc2)ccn1` (stereo not drawn), for which the cytotoxicity at 70.5 h was -2.78%.

On to `CN1CCCC(c2nnc3n2CCN(S(=O)(=O)c2ccccc2Cl)C3)C1` (stereo not drawn), for which the cytotoxicity at 70.5 h was -9.93%.

`Nc1ncnc2nc(C3CCN(C(=O)Cc4ccc(F)cc4)C3)ccc12` (stereo not drawn): the cytotoxicity at 70.5 h was -9.46%.

Consider `CCC(=O)N1CCc2c(O)nc(C3CCCCN3C(=O)C3CC3)nc2C1` (stereo not drawn), for which the cytotoxicity at 70.5 h is -3.59%.

As for `O=C1NC2(CCc3ccccc31)CCN(C(=O)c1cccnc1)C2` (stereo not drawn), the cytotoxicity at 70.5 h was -13%.

As to `CCC(=O)N1CCCCC1c1nc(O)c2c(n1)CN(C(=O)C1CC1)CC2` (stereo not drawn), the cytotoxicity at 70.5 h is -7.02%.

Consider `CCC(=O)N1CCCCC1c1nc(O)c2c(n1)CN(S(=O)(=O)CC)CC2` (stereo not drawn), for which the cytotoxicity at 70.5 h is -13.9%.

As for `Cc1c[nH]nc1C1CN(Cc2cnn(-c3ccccc3C(=O)O)c2)C1`, the cytotoxicity at 70.5 h was -6.87%.

`CCCn1cc(Cl)c(C(=O)N2C[C@@H](O)[C@H](NC(C)=O)C2)n1`: the cytotoxicity at 70.5 h is -8.89%.

Consider `CNc1cncc(C2CCCN2Cc2ccnc(N3CCCC3)n2)n1` (stereo not drawn), for which the cytotoxicity at 70.5 h was determined as 16.1%.

In the case of `O=S(=O)(c1cccs1)N1CCCCC1c1ccn[nH]1` (stereo not drawn), the cytotoxicity at 70.5 h is -2.26%.

For `Cc1c[nH]nc1C1CCCCN1C(=O)CC1(O)CCCCC1` (stereo not drawn), the cytotoxicity at 70.5 h is -8.79%.

For `Cc1ncsc1CN1C[C@@H](O)[C@](O)(CNC(=O)c2ccccn2)C1`, the cytotoxicity at 70.5 h is -10.6%.

As for `COc1ccc(CN2C[C@@H](O)[C@](O)(CNC(=O)c3ccccn3)C2)cc1`, the cytotoxicity at 70.5 h is -7.06%.

Consider `CC(=O)N1C[C@@H](c2ccsc2)[C@@H]2CN(Cc3ccccc3C)CC[C@@H]21`, for which the cytotoxicity at 70.5 h was found to be 18.9%.

As to `COc1cccc(CN2CCC(c3nnc(-c4cnc(C)cn4)o3)C2)c1` (stereo not drawn), the cytotoxicity at 70.5 h is -13.5%.

Consider `Cc1nc(Nc2nnc(C)s2)cc(C2CCCN2C)n1` (stereo not drawn), for which the cytotoxicity at 70.5 h came out at 7.92%.

Consider `CCN1CCC(c2cncc(N(C)C)n2)CC1`, for which the cytotoxicity at 70.5 h came to 1.63%.

In the case of `CC(=O)N1CC(Cc2nccc3ccn(C)c23)C1`, the cytotoxicity at 70.5 h is -5.15%.

For the compound `c1ncc(Nc2nccc(C3CCCCN3CC3CCCCC3)n2)cn1` (stereo not drawn), the cytotoxicity at 70.5 h is -2.27%.

In the case of `O=C(C1CC1)N1CCC(c2nc(O)c3c(n2)CCN(C2CCCC2)C3)C1` (stereo not drawn), the cytotoxicity at 70.5 h is -6.87%.

`CC(=O)N1CCC(c2ccnc(Nc3cnccn3)n2)C1` (stereo not drawn): the cytotoxicity at 70.5 h is -22.3%.

Consider `CCC(=O)N1CCC(Cc2ccccc2-c2ccccc2)(C(N)=O)C1` (stereo not drawn), for which the cytotoxicity at 70.5 h is -20.3%.

On to `Cc1nc(CCC(=O)NC2CCC2)cc(C2CCNCC2)n1`, for which the cytotoxicity at 70.5 h was 21.9%.

For `Cc1noc(C)c1-c1cccc(CC2CCN(C(=O)c3cc[nH]n3)C2)n1` (stereo not drawn), the cytotoxicity at 70.5 h was -18%.

On to `CC(=O)N1CCOC(c2cc(N3CC(O)C3)nc(C)n2)C1` (stereo not drawn), for which the cytotoxicity at 70.5 h is -16.5%.

On to `Cc1cc(N(C)C)nc(C2(C)CCCN2C(=O)c2cnccn2)n1` (stereo not drawn), for which the cytotoxicity at 70.5 h is -21.4%.

Turning to `CC(=O)Nc1nc(C2CCN(C(=O)c3cccnc3)CC2)cs1`, the cytotoxicity at 70.5 h was -15.5%.

As to `CN1CCN(Cc2cscn2)CC(C(=O)N(C)C)C1` (stereo not drawn), the cytotoxicity at 70.5 h is 15.4%.

For the compound `CC(=O)N1CCC(c2cncc(Oc3ccccc3)n2)CC1`, the cytotoxicity at 70.5 h was -2.89%.

On to `CCn1cc(CN2C[C@@H]3CCCN3C[C@@H]2CCSC)c(C)n1`, for which the cytotoxicity at 70.5 h is -22.6%.

For the compound `CC(=O)N1CCCC1c1nccc(C)n1` (stereo not drawn), the cytotoxicity at 70.5 h was -9.48%.

Take `Cc1cnc(N)c(C(=O)C2CCN(C(=O)c3ccccc3F)CC2)c1`: the cytotoxicity at 70.5 h is -11.6%.

Take `C=C(C)C(=O)N1CCC(C(=O)c2cc(C)cnc2N)CC1`: the cytotoxicity at 70.5 h is 14.9%.

For the compound `Cc1nc(C2CCCN2C(=O)c2ccccc2)ncc1C(N)=O` (stereo not drawn), the cytotoxicity at 70.5 h was -7.95%.

As to `CN(Cc1ccc(F)cc1)CC1(O)CCN(C(=O)c2cccn2C)C1` (stereo not drawn), the cytotoxicity at 70.5 h is -10.7%.

For `Cc1ccccc1C(=O)N1CCC(n2nnc3cc(F)ccc32)CC1`, the cytotoxicity at 70.5 h is -12.1%.

As to `Cc1cc(-c2cnc(N3CCNC(=O)C3)nc2-c2cccnc2C)on1`, the cytotoxicity at 70.5 h is -15.9%.

In the case of `COc1ccc(C2Nc3cc(Cl)ccc3C3=NCCN32)cc1OC` (stereo not drawn), the cytotoxicity at 70.5 h amounted to 42.1%.

Turning to `COc1ccc(C2Nc3ccccc3C3=NCCCN32)cc1OC` (stereo not drawn), the cytotoxicity at 70.5 h was determined as 7.54%.

`CC(=O)N1CCC(Cc2cnc(-c3c(C)n[nH]c3C)cn2)C1` (stereo not drawn): the cytotoxicity at 70.5 h was -13.1%.

Take `Cc1ccc(Nc2nccc(C3CCCN(CC(=O)N(C)C)C3)n2)nc1` (stereo not drawn): the cytotoxicity at 70.5 h was -16.1%.

With `NCCn1nc(C2CCN(C(=O)CC3CCCCC3)C2)c2nccnc21` (stereo not drawn), the cytotoxicity at 70.5 h is -7.33%.

For the compound `CC1CCCN(CC(=O)N2CCC(c3ncc4c(n3)CCNC4)CC2)C1` (stereo not drawn), the cytotoxicity at 70.5 h came out at 1.79%.

As for `CC(C)(C)C(=O)N1CCC(c2nc(O)cc(-c3ccccn3)n2)CC1`, the cytotoxicity at 70.5 h came out at 16%.

As to `CC(C)(C)c1n[nH]cc1CN1CCc2nc3ccsc3c(=O)n2CC1`, the cytotoxicity at 70.5 h was determined as 12.1%.

In the case of `O=c1c2ccccc2nc2n1CCN(Cc1cccs1)CC2`, the cytotoxicity at 70.5 h was -16.1%.

In the case of `Cc1ccc(-c2cc(N)c(=O)n(CC(=O)NCC3CCCCC3)n2)s1`, the cytotoxicity at 70.5 h was -16.2%.

Regarding `O=C(c1ccncc1)N1CCC(O)(Cn2ccc3ccncc32)CC1`, the cytotoxicity at 70.5 h was -13.3%.

As to `O=C(NCCO)C1(Cc2cc(-c3ccc(F)cc3F)no2)CCOCC1`, the cytotoxicity at 70.5 h is -12.3%.

On to `O=c1c2sccc2nc2n1CCN(Cc1cccs1)CC2`, for which the cytotoxicity at 70.5 h is -18.8%.

Turning to `Cc1cc2c(=O)n3c(nc2s1)CCN(C(=O)c1cnn(C)c1C)CC3`, the cytotoxicity at 70.5 h is -14.8%.

Consider `CCS(=O)(=O)N1CCC(c2cc3n(n2)[C@@H](C(F)(F)F)C[C@@H](C)N3)CC1`, for which the cytotoxicity at 70.5 h is -17.1%.

`Cc1ccc(S(=O)(=O)N2C[C@H]3C[C@H](NC(=O)c4ccn(C)n4)[C@H]3C2)cc1`: the cytotoxicity at 70.5 h stood at 1.44%.

For the compound `Cc1ccc(-c2cc(N)c(=O)n(CC(=O)NC3CCCCC3)n2)s1`, the cytotoxicity at 70.5 h was -17.9%.

`O=C(O)C1(Cc2cccc(-c3ccc(F)c(F)c3)c2)CCOCC1`: the cytotoxicity at 70.5 h is -19.2%.

As for `CN1CCC2(CC1)CNC(=O)c1ccccc1O2`, the cytotoxicity at 70.5 h was -13.6%.

As for `Fc1ccc(CN2CCCC(c3nnc(-c4cnccn4)o3)C2)cc1F` (stereo not drawn), the cytotoxicity at 70.5 h came out at 0.0269%.

Take `CC(C)c1ncc(CN2CCCC(CO)C2)cn1` (stereo not drawn): the cytotoxicity at 70.5 h was -8.2%.

`CNc1cc(C)nc(C2CN(Cc3cc[nH]n3)CCO2)c1` (stereo not drawn): the cytotoxicity at 70.5 h was -7.87%.

For the compound `CNc1cc(C)nc(C2CN(Cc3ccc(C)nc3)CCO2)c1` (stereo not drawn), the cytotoxicity at 70.5 h is -9.06%.

In the case of `O=C(Cc1cccc(F)c1)N1CCCCC1c1ccn2ccnc2n1` (stereo not drawn), the cytotoxicity at 70.5 h was 29.6%.

Regarding `Cc1ncc(CNC(=O)CCOc2ccccc2)c(C2CCCN2C)n1` (stereo not drawn), the cytotoxicity at 70.5 h is -8.4%.

`Cc1nc(CC(=O)N2CCCCC2c2ccn3ccnc3n2)cs1` (stereo not drawn): the cytotoxicity at 70.5 h was -12.6%.

In the case of `COc1ccc(Cc2cccc(C3CCN(C)CC3)n2)cc1`, the cytotoxicity at 70.5 h is -6.68%.

For `CN1CCC(c2cccc(Cc3ccc(F)cc3)n2)CC1`, the cytotoxicity at 70.5 h was -13.1%.

Take `Cc1nc(NC2CCCC2)cc(C2CCN2C(=O)c2cccnc2)n1` (stereo not drawn): the cytotoxicity at 70.5 h was -9.69%.

As to `COCCC(=O)N1CCC(c2noc3nc(C)cc(C(F)(F)F)c23)CC1`, the cytotoxicity at 70.5 h is -4.96%.

Consider `CCS(=O)(=O)CCSc1ccc(Cl)cc1`, for which the cytotoxicity at 70.5 h was determined as 27%.

Regarding `CN(Cc1nc(C(F)(F)F)cs1)C(=O)CCc1cccnc1`, the cytotoxicity at 70.5 h is -10.4%.

Turning to `Cc1oc(C(=O)Nc2cccc(Cl)c2C)cc1S(N)(=O)=O`, the cytotoxicity at 70.5 h amounted to 0.43%.

`O=S(=O)(NCCc1ccccc1C(F)(F)F)N1CCOCC1`: the cytotoxicity at 70.5 h worked out at 23.1%.

Regarding `O=C1CCN(C(=O)NCCCc2ccc(Cl)cc2Cl)CCN1`, the cytotoxicity at 70.5 h was -7.65%.

Turning to `CS(=O)(=O)CCCC(=O)Nc1cc(-c2cccc(F)c2F)n[nH]1`, the cytotoxicity at 70.5 h was -16.7%.

For `COC(=O)c1ccc(S(=O)(=O)N2CCCn3ncnc32)s1`, the cytotoxicity at 70.5 h stood at 0.743%.

For `CC(=O)Nc1cc(-c2cccc(F)c2F)n[nH]1`, the cytotoxicity at 70.5 h was -5.76%.

`COC(=O)c1ccc(NC(C)c2ccc3c(c2)CCC(=O)N3)nn1` (stereo not drawn): the cytotoxicity at 70.5 h is -8.66%.

In the case of `CC(C)CC(=O)N(C)Cc1nc(C(F)(F)F)cs1`, the cytotoxicity at 70.5 h was -9.65%.

Take `CC(=O)N1CC(C)CN(C(=O)c2cnccn2)c2ccccc21` (stereo not drawn): the cytotoxicity at 70.5 h was -12.2%.

In the case of `O=S(=O)(NCCc1ccccc1F)N1CCOCC1`, the cytotoxicity at 70.5 h is -3.51%.

As to `c1cc2c(cc1CSCc1noc(C3CC3)n1)OCCO2`, the cytotoxicity at 70.5 h was -13.8%.

Regarding `Cc1ccc(S(=O)(=O)NCCc2nnc[nH]2)c2cccnc12`, the cytotoxicity at 70.5 h is 15.2%.

With `CCOc1nnc(CN2CCN(CCOC)C(CC)C2)s1` (stereo not drawn), the cytotoxicity at 70.5 h is 12.8%.

For `COCCCN1Cc2cccc(NC(=O)C(C)(C)C)c2C1`, the cytotoxicity at 70.5 h amounted to 31.1%.

Regarding `CC(CNC1CCN(c2ccccn2)CC1)Oc1ccc(F)cc1` (stereo not drawn), the cytotoxicity at 70.5 h turned out to be 23.5%.

For `CCOc1nnc(CN2CCN(CCOC)C(C)C2)s1` (stereo not drawn), the cytotoxicity at 70.5 h is -7.83%.

For the compound `COc1cccc(Nc2nc(C3CCNCC3)c3sc(C)c(C)n23)c1`, the cytotoxicity at 70.5 h is -7.32%.

As for `Cc1sc2c(C3CCCNC3)nc(Nc3cccc(F)c3)n2c1C` (stereo not drawn), the cytotoxicity at 70.5 h was -5.08%.

In the case of `COc1cccc(Nc2nc(C3CCCNC3)c3ccccn23)c1` (stereo not drawn), the cytotoxicity at 70.5 h was -7.29%.

Consider `Cc1sc2c(C3CCNCC3)nc(Nc3cccc(F)c3)n2c1C`, for which the cytotoxicity at 70.5 h is 15.7%.

With `COc1cccc(-c2noc(C3CCN(Cc4ccccc4F)C3)n2)c1` (stereo not drawn), the cytotoxicity at 70.5 h came out at 38.2%.

On to `COc1cccc(-c2noc(C3CCN(Cc4ccc(C)cc4)C3)n2)c1` (stereo not drawn), for which the cytotoxicity at 70.5 h came to 23.2%.

For the compound `COc1cccc(-c2noc(C3CCN(Cc4ccccc4C)C3)n2)c1` (stereo not drawn), the cytotoxicity at 70.5 h came to 13.9%.

With `Clc1ccccc1CN1CCc2nc(C3CCCCN3)ncc2C1` (stereo not drawn), the cytotoxicity at 70.5 h was -18.6%.

Turning to `O=C(CCC1CCCC1)NCCn1nc(C2CCNC2)c2nccnc21` (stereo not drawn), the cytotoxicity at 70.5 h stood at 34.9%.

Take `COc1ccc(CN(Cc2cccnc2)CC2CCCO2)c(OC)c1` (stereo not drawn): the cytotoxicity at 70.5 h was -5.79%.

With `CN(C)c1ccc(CN(CCCn2ccnc2)Cc2c[nH]cn2)cc1`, the cytotoxicity at 70.5 h is -13.5%.

The values are drawn from ChEMBL document CHEMBL3507680, “University of Dundee, Gates Library screen for HepG2 cell viability”.
